Measurements taken from patent US20110275679A1, “FLUPIRTINE HYDROCHLORIDE MALEIC ACID COCRYSTAL” (Bionevia Pharmaceuticals, Inc., priority 2008, published 2011).
Structures can show the parent of a compound that is named as a salt.

Tests used:
[1] = Intrinsic dissolution in water at 37° C. (Woods apparatus pellet, UV absorbance at 343 nm); format: physicochemical
Description: Intrinsic Dissolution: Pellets of approximately 200 mg were pressed at 3000 lbs. for 1 minute in a standard Woods apparatus, with a surface area of 0.5 cm^2. One pellet was tested for each material. The samples were rotated in a VanKel dissolution apparatus, with automated sampling, at 100 RPM in 900 mL of water at 37° C. Aliquots were taken every two minutes and not filtered prior to analysis. […] A wavelength of approximately 343 nm was chosen for the cocrystal to avoid potential interference from maleic acid. To determine the rate of dissolution of each material, a plot was generated of the absorbance over time for each material. From this plot, a linear region was chosen from the initial dissolution period of each material. Concentrations were plotted versus time for the regions. A straight-line was fit to the data for each material. The slope of these lines provides the dissolution rate for each of the materials, expressed as [μg/mL]/min. The rates were not normalized for the surface area of the pellet. Aliquots of the dissolution medium were removed manually at the end of the run and analyzed by UV spectrophotometry, and the remainder of the pellets were recovered for XRPD analysis. FIG. 2-3 depicts the UV absorbance (at 343 nm) vs. time curves for the intrinsic dissolution experiment on flupirtine maleate in water at 37° C. […] Intrinsic dissolution experiments were performed under sink conditions in water at 37° C. […] The intrinsic dissolution rate of the 1:1 flupirtine hydrochloride maleic acid cocrystal was ˜0.21 μg/mL/min. There appeared to be a slow chemical change occurring in the dissolution medium. The solid recovered from the intrinsic dissolution experiment was analyzed by XRPD and determined to correspond to a mixture of the flupirtine hydrochloride maleic acid cocrystal and a small amount of an unidentified material.

[2] = cited from earlier work
[3] = in man; cited from earlier work
[4] = water, 37° C., 100 RPM, 900 mL, 0.5 cm^2 pellet, not normalized for surface area

intrinsic dissolution rate [1, 4]	aqueous solubility as indicated by low absorbance values in the intrinsic dissolution experiment ([1]; water, 37° C., UV absorbance at 343 nm)	intrinsic dissolution rate ([1]; sink conditions in water at 37° C.)	Compound	solubility in water [2]	time to maximum plasma concentration (tmax) [3]
0.088 [μg/mL]/min	poor aqueous solubility	–	CCOC(=O)Nc1ccc(NCc2ccc(F)cc2)nc1N [flupirtine maleate]	insoluble in water	–
0.21 [μg/mL]/min	–	~0.21 µg/mL/min	CCOC(=O)Nc1ccc(NCc2ccc(F)cc2)nc1N.Cl.O=C(O)C=CC(=O)O	–	–
–	–	–	CCOC(=O)Nc1ccc(NCc2ccc(F)cc2)nc1N [flupirtine, 2-amino-3-carbethoxyamino-6-(p-fluorobenzylamino)pyridine]	–	2 h
